Test results taken from patent publication US7994127B2, “Treatment of rett syndrome” (Massachusetts Institute of Technology, priority 2007, dated 2011).

B1: BDNF: brain derived neurotrophic factor (protein, UniProt P23560 19-247, looked up)
Neurotrophic factor BDNF …: APMKEANIRGQGGLAYPGVRTHGTLESVNGPKAGSRGLTSLADTFEHVIEELLDEDQKVRPNEENNKDADLYTSRVMLSSQVPLEPPLLFLLEEYKNYLDAANMSMRVRRHSDPARRGELSVCDSISEWVTAADKKTAVDMSGGTVTVLEKVPVSKGQLKQYFYETKCNPMGYTKEGCRGIDKRHWNSQCRTTQSYVRALTMDSKKRIGWRFIRIDTSCVCTLTIKRGR

Columns and labels:
rat hippocampal cultures = conditions: Ramsey et al., 2005; Xing et al., 2007; cited from earlier work
[1] = tested on: visual cortex of adult MeCP2+/− mice; assay: Ocular dominance plasticity after monocular deprivation, optical imaging of intrinsic signals; type: in vivo, mouse; conditions: 180 μg/kg/day i.p. starting at 2 weeks; P60 MeCP2 KO mice
synaptic transmission = assay: Synaptic transmission during direct application of the molecules; type: cell-based, mouse; conditions: direct application of the molecule
Text: rhIGF1 produced a similar improvement as (1-3)IGF-1 in all maturational signatures measured, including (A) synaptic transmission levels, and (B) circuit stability (by preventing ocular dominance plasticity) in P60 MeCP2 KO mice.
The above data focused on the (1-3)IGF-1 fragment of IGF1 to promote IGF1 signaling. We also have tested the effect of the full-length IGF1 peptide already approved for pediatric administration in human patients (for short stature indications). We have verified a correspondence in the effects of (1-3)IGF-1 and recombinant human IGF1 (rhIGF1).

[2] = in vivo; cited from earlier work

Molecule | excitatory postsynaptic currents (rat hippocampal cultures) | maturation of cortical circuitry during ocular dominance plasticity (FIG. 9B) [1] | synaptic activity / synaptic transmission levels (FIG. 9A) (synaptic transmission) | crossing the blood-brain barrier [2]
rhIGF1: full-length IGF1 peptide already approved for pediatric administration in human patients; recombinant human IGF1 | elevate excitatory postsynaptic currents significantly | promoted to similar degrees | striking enhancements of synaptic activity | capable of crossing the blood-brain barrier
B1 |  |  |  | poor efficiency at crossing the blood brain barrier
